Reference: publication PMC9276586 (Cellular and Molecular Life Sciences: CMLS, 2022)
≈ marks a conversion by molar mass, not a printed value. Like-named read-outs stand apart in the source and are kept apart here. Blank lines part the entries; values can stand above or below the molecule they belong to. Peptide text beside a SMILES is read from it.

What was measured:
aureolysin [1] = target: aureolysin (Staphylococcus aureus, UniProt P81177); test: Proteolytic stability against aureolysin; assay type: in vitro ADME; conditions: bacterial protease aureolysin; percentage of intact peptide at time points by LC–MS
Experimental: A major limitation of AMPs as potential drug candidates is due to their inherent proteolytic instability, and endogenous AMPs are readily degraded by both host- and pathogen-proteases. […] Therefore, the stability of CD4-PP was tested against this enzyme. The percentage of the intact peptide at different time points was monitored using LC–MS, and compared to LL-37 as a control. […] In contrast, CD4-PP is stable for up to 6 h (Supplementary Fig. S2).
[picture] Supplementary Figure S2.

E. coli CFT073 = assay type: cell-based, Escherichia coli
Experimental: (§1) The following uropathogenic bacterial species were used for the in vitro experiments, E. coli CFT073; E. coli ESBL-producing (CCUG 55197); K. pneumoniae (ATCC 25955); K. pneumoniae multidrug resistant (MDR) (CCUG 58547); and P. aeruginosa (ATCC 27853). Clinical isolates were obtained from the Department of Clinical Microbiology, Karolinska University Hospital, Solna, Sweden. Bacteria were cultured aerobically overnight on blood agar plates at 37 °C. For each bacterial species, 20 clinical isolates were included. For further assessment of biofilm formation, the E. coli isolate #12 from a child with pyelonephritis was chosen. The isolate expresses both curli and cellulose, as well as type 1 fimbriae and produces biofilm as measured on microtiter plates One-step knockout of bcsA and csgBA were carried out using the methods as described previously. The following mutants were used: WE1 bcsA::Cm (deficient in cellulose production), WE11 csgBA::Cm (deficient in curli production), and WE16 csgBA bscA::Cm (deficient in both cellulose and curli production). E. coli CFT073 was used for all experiments where nothing else is stated.
(§2) MIC of CD4-PP was evaluated against the type strains and the 20 clinical bacterial isolates using a two-step micro-dilution assay adapted for testing AMPs. The concentrations of CD4-PP were prepared double strength with two-fold serial dilutions ranging from 50 to 0.78 µM in 50 µL of 10 mM Tris buffer in a U-bottom 96-well plate (Corning Incorporated).
(§3) Bacteria were grown to mid-log phase before diluting to a final concentration of 1 × 10^6 CFU/mL in 10 mM Tris buffer using a Densichek Plus (BioMérieux). To each well, 50 µL suspension was added and incubated at 37 °C for 1 h and the final concentrations of peptide tested were from 25 to 0.39 µM. […] The MIC was read spectrophotometrically at 595 nm. MIC was defined as the lowest concentration of CD4-PP which inhibits bacterial growth. The effects of salt ions on the antibacterial activities of CD4-PP were assessed against E. coli (ATCC 25922) and P. aeruginosa (ATCC 27853) type strains. […]

[2] = system: Pseudomonas aeruginosa (ATCC 27853); assay type: cell-based
Experimental: as §1, §2
(§4) Bacteria were grown to mid-log phase before diluting to a final concentration of 1 × 10^6 CFU/mL in 10 mM Tris buffer using a Densichek Plus (BioMérieux). To each well, 50 µL suspension was added and incubated at 37 °C for 1 h and the final concentrations of peptide tested were from 25 to 0.39 µM. […] The MIC was read spectrophotometrically at 595 nm. MIC was defined as the lowest concentration of CD4-PP which inhibits bacterial growth. The effects of salt ions on the antibacterial activities of CD4-PP were assessed against E. coli (ATCC 25922) and P. aeruginosa (ATCC 27853) type strains. The following salts were used: sodium chloride (NaCl), ammonium chloride (NH4Cl), calcium chloride (CaCl2), magnesium chloride (MgCl2) and ferric chloride (FeCl3). All salts were purchased from Merck.

[3] = system: MDR K. pneumoniae (CCUG 58547); assay type: cell-based, Klebsiella pneumoniae; conditions: 10 mM Tris buffer, bacteria 1 × 10^6 CFU/mL, 1 h 37 °C, then TSB 16–18 h, read at 595 nm
Experimental: as §1, with “The following mutants were used: WE1 bcsA::Cm (deficient in cellulose production), WE11 csgBA::Cm (deficient in curli production), and WE16 csgBA bscA::Cm (deficient in both cellulose and curli production). E. coli CFT073 was used for all experiments where nothing else is stated.” left out
MIC of CD4-PP was evaluated against the type strains and the 20 clinical bacterial isolates using a two-step micro-dilution assay adapted for testing AMPs. […]
Bacteria were grown to mid-log phase before diluting to a final concentration of 1 × 10^6 CFU/mL in 10 mM Tris buffer using a Densichek Plus (BioMérieux). […] The MIC was read spectrophotometrically at 595 nm. […] The effects of salt ions on the antibacterial activities of CD4-PP were assessed against E. coli (ATCC 25922) and P. aeruginosa (ATCC 27853) type strains. […]

[4] = system: E. coli ESBL strain (CCUG 55971); assay type: cell-based, Escherichia coli; conditions: 10 mM Tris buffer, bacteria 1 × 10^6 CFU/mL, 1 h 37 °C, then TSB 16–18 h, read at 595 nm
Experimental: as §1, §2, §3

[5] = system: Klebsiella pneumoniae (ATCC 25955); assay type: cell-based; conditions: 10 mM Tris buffer, bacteria 1 × 10^6 CFU/mL, 1 h 37 °C, then TSB 16–18 h, read at 595 nm
Experimental: as §1, §2, §4

aureolysin [6] = test: bacterial protease aureolysin; conditions: up to 6 h
[7] = stated in SEM method, bacteria at 10^8 CFU/mL in 10 mM Tris buffer

Molecule: CC[C@H](C)[C@H](NC(=O)[C@H](CCCCN)NC(=O)[C@H](CCC(=O)O)NC(=O)[C@H](CCCCN)NC(=O)[C@H](CO)NC(=O)[C@H](CCCCN)NC(=O)[C@H](CCCNC(=N)N)NC(=O)[C@H](Cc1ccccc1)NC(=O)[C@H](Cc1ccccc1)NC(=O)[C@H](CC(=O)O)NC(=O)CNC(=O)[C@H](CC(C)C)NC(=O)[C@@H](N)CC(C)C)C(=O)NCC(=O)N[C@@H](CCCCN)C(=O)N[C@@H](CCC(=O)O)C(=O)N[C@@H](Cc1ccccc1)C(=O)N[C@@H](CCCCN)C(=O)N[C@@H](CCCNC(=N)N)C(=O)N[C@H](C(=O)N[C@H](C(=O)N[C@@H](CCC(N)=O)C(=O)N[C@@H](CCCNC(=N)N)C(=O)N[C@H](C(=O)N[C@@H](CCCCN)C(=O)N[C@@H](CC(=O)O)C(=O)N[C@@H](Cc1ccccc1)C(=O)N[C@@H](CC(C)C)C(=O)N[C@@H](CCCNC(=N)N)C(=O)N[C@@H](CC(N)=O)C(=O)N[C@@H](CC(C)C)C(=O)N[C@H](C(=O)N1CCC[C@H]1C(=O)N[C@@H](CCCNC(=N)N)C(=O)N[C@H](C(=O)N[C@@H](CCC(=O)O)C(=O)N[C@@H](CO)C(=O)O)[C@@H](C)O)C(C)C)[C@@H](C)CC)C(C)C)[C@@H](C)CC [LL-37]
degradation by aureolysin (in words) (aureolysin [1]): rapidly degraded within minutes
MIC (reference concentration used for SEM) (E. coli CFT073; [7]): 15.62 µM
MIC ([2]; CaCl2 2.5 mM): >10 µM
MIC ([2]; FeCl3 4 µM): 2.5 µM (≈ 11.2 µg/mL)
MIC ([2]; MgCl2 1 mM): 5 µM (≈ 22.5 µg/mL)
MIC ([2]; NH4Cl 6 µM): 1.25 µM (≈ 5.62 µg/mL)
MIC ([2]; NaCl 150mM): 5 µM (≈ 22.5 µg/mL)
MIC ([2]; salt series: Tris-buffer 10mM, no added salt): 1.25 µM
MIC (reference concentration used for SEM) [2, 7]: 15.62 µM

Molecule: CC[C@H](C)[C@@H]1NC(=O)[C@H](CCCNC(=N)N)NC(=O)[C@H](CCCCN)NC(=O)[C@H](C(C)C)NC(=O)[C@H]([C@@H](C)CC)NC(=O)[C@H](CCCNC(=N)N)NC(=O)[C@H](CCCCN)NC(=O)CNC(=O)CNC(=O)[C@@H]2CCCN2C(=O)[C@H](CS)NC(=O)[C@H](CCCNC(=N)N)NC(=O)[C@H](CC(C)C)NC(=O)[C@H](Cc2ccccc2)NC(=O)[C@H](C)NC(=O)[C@H](CCCCN)NC(=O)[C@H]([C@@H](C)CC)NC(=O)[C@H](CCCNC(=N)N)NC(=O)[C@H](CCCCN)NC(=O)[C@H](C(C)C)NC(=O)[C@H]([C@@H](C)CC)NC(=O)[C@H](CCCNC(=N)N)NC(=O)[C@H](CCCCN)NC(=O)CNC(=O)CNC(=O)[C@@H]2CCCN2C(=O)CNC(=O)[C@H](CCCNC(=N)N)NC(=O)[C@H](CC(C)C)NC(=O)[C@H](Cc2ccccc2)NC(=O)[C@H](C)NC(=O)[C@H](CCCCN)NC1=O [CD4-PP] (cyclo(AFLRCPGGKRIVKRIKAFLRGPGGKRIVKRIK))
MIC [3]: 1.56 µM (≈ 5.62 µg/mL)
time for which the peptide is stable with aureolysin (aureolysin [1]): up to 6 h
MIC (E. coli CFT073; CFT073, 1 h): 0.78 µM (≈ 2.81 µg/mL)
MIC [4]: 0.78 µM (≈ 2.81 µg/mL)
MIC [5]: 1.56 µM (≈ 5.62 µg/mL)

not cleaved (aureolysin [6]): stable for up to 6 h
Molecule: CPGGKRIVKRIKAFLRGPGGKRIVKRIKAFLR

cleaved bond (aureolysin [6]): L31-V32
Molecule: LLGDFFRKSKEKIGKEFKRIVQRIKDFLRNLVPRTES
